Data reported in article PMC7932537, “Quantitative profiling of protease specificity” (PLoS Computational Biology, 2021).

Experiments:
MMP-2 [1] = biological target: T1, MMP-2 (Homo sapiens, UniProt P08253); assay: kcat/KM of synthetic peptides derived from substrate phage selections; format: biochemical; conditions: synthetic hexamer peptides; recombinant MMP-2 catalytic domain, APMA-activated; determined in triplicate as described in ref 27
T1 construct: The recombinant catalytic domains of MMP-2 and -9 were expressed in HEK293 cells; made in house; host or cells: HEK293 cells, stably transfected; purified from serum-free medium on Gelatin Sepharose 4B
T1 sequence (P08253 110-446 limits assumed): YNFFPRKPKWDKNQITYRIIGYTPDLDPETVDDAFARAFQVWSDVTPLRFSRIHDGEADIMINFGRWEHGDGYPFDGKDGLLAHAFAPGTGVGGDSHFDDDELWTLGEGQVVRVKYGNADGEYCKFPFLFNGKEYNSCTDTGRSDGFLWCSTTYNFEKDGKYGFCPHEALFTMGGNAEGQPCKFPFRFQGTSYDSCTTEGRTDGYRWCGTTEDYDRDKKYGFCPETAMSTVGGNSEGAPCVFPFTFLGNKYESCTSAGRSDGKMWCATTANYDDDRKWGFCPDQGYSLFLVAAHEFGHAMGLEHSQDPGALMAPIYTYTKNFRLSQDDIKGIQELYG
Text: (§1) K(obs) obtained for each of the 1369 substrates has a range of 0 and 12,792 (M^-1 s^-1) due to the experimental conditions used in the study. So, all substrates with the true K(obs) above this value will nevertheless have a K(obs) equal to the preset maximum. With this limitation in mind, we corroborated the results using synthetic peptides, thereby extending the correlation to the entire range of kcat/KM values for each MMP. We performed a correlation analysis using a set of 100 peptides with sequences derived from substrate phage selections and their kcat/KM values were experimentally determined as described in [27] (S8 Table).
(§2) The recombinant catalytic domains of MMP-2 and -9 were expressed in HEK293 cells stably transfected with respective constructs and purified from serum-free culture medium using Gelatin Sepharose 4B (GE Healthcare) as described in [29, 35]. Following activation with APMA (Sigma-Aldrich), the amount of active enzyme was determined by active site titration using GM6001 (Sigma-Aldrich). The kcat/KM values of 100 peptides derived from phage substrates […] were determined in triplicate as described in [27].
(§3) Supplementary file pcbi.1008101.s010.xlsx: S8 Table Table of 100 peptide set derived from substrate phage selections of MMP-2 and 9, for which kcat/KM values were experimentally determined. […]

MMP-9 [2] = assay: Substrate phage display with NGS: relative probability (RP) of P3-P1' tetramer clusters; format: biochemical, human; conditions: for relative probability (RP) (acc.to MMP9): RP of matching tetramer of the cleavage site, unique part of MMP9 selectome
MMP-2 [3] = assay: as above; format: biochemical, human; conditions: for relative probability (RP) (acc.to MMP2): RP of matching tetramer of the cleavage site, unique part of MMP9 selectome
MMP-9 [4] = biological target: MMP-9 (Homo sapiens, UniProt P14780); assay: kcat/KM of synthetic peptides derived from substrate phage selections; format: biochemical; parameters: The recombinant catalytic domains of MMP-2 and -9 were expressed in HEK293 cells; made in house; host or cells: HEK293 cells, stably transfected; purified from serum-free medium on Gelatin Sepharose 4B; conditions: MMP9; 100 set of synthetic hexamer peptide substrates; mean, SD and SEM in columns of their own
MMP-9 (Homo sapiens, UniProt P14780), sequence (P14780 94-444 limits assumed): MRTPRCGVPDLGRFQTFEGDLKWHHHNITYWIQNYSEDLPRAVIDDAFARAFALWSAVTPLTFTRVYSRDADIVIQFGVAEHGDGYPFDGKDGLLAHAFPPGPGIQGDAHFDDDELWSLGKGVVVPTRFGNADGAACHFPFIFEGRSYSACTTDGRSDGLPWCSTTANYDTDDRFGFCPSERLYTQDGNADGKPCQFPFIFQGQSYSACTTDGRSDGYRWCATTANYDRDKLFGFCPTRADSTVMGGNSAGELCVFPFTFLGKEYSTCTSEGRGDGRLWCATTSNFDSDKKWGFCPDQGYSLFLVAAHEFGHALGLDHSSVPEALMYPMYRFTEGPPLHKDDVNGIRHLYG
Text: as §1, §2, §3

MMP-2 [5] = assay: N-terminomic (TMT) analysis of MMP-treated HEK293 secretome: isotopic enrichment of novel N-termini; format: biochemical, human; conditions: HEK293 secretome, 750 nM MMP-2, 2 h, 37 C; TMT reporter ratio vs untreated control, LC-MS/MS, duplicate
MMP-9 [6] = assay: as above; format: biochemical, human; conditions: for isotopic enrichment (log2(ratio)) (acc.to MMP9): HEK293 secretome, 750 nM MMP-9, 2 h, 37 C, TMT reporter ratio vs untreated control, LC-MS/MS, duplicate; for isotopic enrichment (log2(ratio)): MMP9 cleavages in HEK293 cell proteins, determined by LC-MS/MS, log2(ratio) range (>3σ, 2σ-3σ, 1σ-2σ)

Substance	kcat/Km (MMP-2 [1])	relative probability (RP) (MMP-9 [2]; MMP9, RP of the P3-P1' tetramer contained in the hexamer substrate (substrate phage display, NGS))	relative probability (RP) (MMP-2 [3]; RP of the P3-P1' tetramer cluster contained in the hexamer, 200 nM MMP-2, 2 h, 37°C, two rounds of selection)	kcat/Km (MMP-9 [4])	relative probability (RP) (acc.to MMP9) (MMP-9 [2])	isotopic enrichment (log2(ratio)) (acc.to MMP2) (MMP-2 [5])	isotopic enrichment (log2(ratio)) (acc.to MMP9) (MMP-9 [6])	isotopic enrichment (log2(ratio)) (MMP-9 [6])	relative probability (RP) (acc.to MMP2) (MMP-2 [3])
DRKPKA	0 M⁻¹ s⁻¹	1.5839	0.3523	0 M⁻¹ s⁻¹					
KHIYY-ITGETK [MS detected cleavage site in Heat shock protein HSP 90-alpha (P07900)]					14.54	0.7225 log2(ratio)	3.338 log2(ratio)	3.338	0.69
KPPRL-VGGPMD [MS detected cleavage site in Cystatin-C (P01034)]					7.12	0.8156 log2(ratio)	1.9855 log2(ratio)	1.9855	0.07
LPPDH-LNGVKL					13.06	1.257 log2(ratio)	2.07 log2(ratio)	2.07	2.08
NHIRY-VISQGN [MS detected cleavage site in Fibrillin-2 (P35556)]					10.4	1.367 log2(ratio)	3.134 log2(ratio)	3.134	0.96
QQPFA-SVMTDE [MS detected cleavage site in Semaphorin-3D (O95025)]					24.05	0.2016 log2(ratio)	2.583 log2(ratio)	2.583	3.01
VVPWP-HVEGVE [MS detected cleavage site in N-acetylgalactosaminyltransferase 7 (Q86SF2)]					15.08	1.195 log2(ratio)	3.516 log2(ratio)	3.516	0
